For 23 compounds, IC50 results are on record in patent US20250179017A1 (GUANGDONG NEWOPP BIOPHARMACEUTICALS CO., LTD., priority 2022, published 2025).

This assay concerns the target T1, human EP2 (PTGER2) (Homo sapiens, UniProt P43116).
T1 construct: Cayman Chemical (Human EP2 Reporter Assay Kit)
The experiment in a line: EP2 antagonist assay (HEK-293 CNG membrane potential cAMP assay / 293T SEAP reporter assay, PGE2-stimulated). The format is cell-based. As to conditions: EP2 antagonist activity; concentration for 50% inhibition of signal compared to DMSO. The procedure, abridged:
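HEK-293 CNG cells expressing human EP2: compound preincubated 15 min at RT, then PGE2 at 5 nM final, 30 min; membrane-potential dye fluorescence (ex 530, em 590 nm), background-subtracted, gave IC50. Alternatively, 293T cells reverse-transfected with EP2 and CRE-SEAP, compound plus 13 nM PGE2 for 6-8 h, SEAP luminescence.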

T1 sequence (P43116 whole entry): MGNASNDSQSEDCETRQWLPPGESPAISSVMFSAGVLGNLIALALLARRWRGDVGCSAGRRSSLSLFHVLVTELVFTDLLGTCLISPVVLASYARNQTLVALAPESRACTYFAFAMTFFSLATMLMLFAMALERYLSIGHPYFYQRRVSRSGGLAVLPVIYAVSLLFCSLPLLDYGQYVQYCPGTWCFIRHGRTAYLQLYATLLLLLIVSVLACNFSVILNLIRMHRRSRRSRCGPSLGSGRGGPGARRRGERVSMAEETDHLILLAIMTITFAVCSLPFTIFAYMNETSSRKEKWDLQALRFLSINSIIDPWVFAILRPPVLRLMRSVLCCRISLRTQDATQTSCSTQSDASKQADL

Regarding `COc1cccc(Cn2ccc3c(Nc4ccccc4)ccc(C(=O)N[C@@H](C)c4ccc(C(=O)O)cc4)c32)c1` [Example 158, (S)-4-(1-(1-(3-methoxybenzyl)-4-(phenylamino)-1H-indole-7-carboxamido)ethyl)benzoic acid], the IC50 (in general, the concentration that gives 50% inhibition) was less than 100 nM. The value for `O=C(O)c1ccc(CNC(=O)c2cc(-c3ccccc3)cc3ccn(Cc4ccc5ccccc5c4)c23)cc1` [Example 159, 4-((1-(naphthalen-2-ylmethyl)-5-phenyl-1H-indole-7-carboxamido)methyl)benzoic acid] was less than 100 nM; that for `O=C(O)c1ccc(CNC(=O)c2cc(-c3ccc(F)cc3)cc3ccn(Cc4ccc5ccccc5c4)c23)cc1` [Example 160, 4-((5-(4-fluorophenyl)-1-(naphthalen-2-ylmethyl)-1H-indole-7-carboxamido)methyl)benzoic acid] was less than 100 nM; that for `O=C(O)c1ccc(CNC(=O)c2cc(-c3cc(F)cc(F)c3)cc3ccn(Cc4ccc5ccccc5c4)c23)cc1` [Example 161, 4-((5-(3,5-difluorophenyl)-1-(naphthalen-2-ylmethyl)-1H-indole-7-carboxamido)methyl)benzoic acid] was less than 100 nM. Compound `C[C@H](NC(=O)c1cc(-c2ccccc2)cc2ccn(Cc3ccc4ccccc4c3)c12)c1ccc(C(=O)O)cc1` [Example 162, (S)-4-(1-(1-(naphthalen-2-ylmethyl)-5-phenyl-1H-indole-7-carboxamido)ethyl)benzoic acid] yielded an IC50 of less than 100 nM.

Compound `C[C@H](NC(=O)c1cc(-c2ccc(F)cc2)cc2ccn(Cc3ccc4ccccc4c3)c12)c1ccc(C(=O)O)cc1` [Example 163, (S)-4-(1-(5-(4-fluorophenyl)-1-(naphthalen-2-ylmethyl)-1H-indole-7-carboxamido)ethyl)benzoic acid] had an IC50 of less than 100 nM. `C[C@H](NC(=O)c1cc(-c2cc(F)cc(F)c2)cc2ccn(Cc3ccc4ccccc4c3)c12)c1ccc(C(=O)O)cc1` [Example 164, (S)-4-(1-(5-(3,5-difluorophenyl)-1-(naphthalen-2-ylmethyl)-1H-indole-7-carboxamido)ethyl)benzoic acid] yielded an IC50 of less than 100 nM. The value for `C[C@H](NC(=O)c1cc(-c2ccccc2)cc2cnn(Cc3ccc4ccccc4c3)c12)c1ccc(C(=O)O)cc1` [Example 167, (S)-4-(1-(1-(naphthalen-2-ylmethyl)-5-phenyl-1H-indazole-7-carboxamido)ethyl)benzoic acid] was less than 100 nM; that for `C[C@H](NC(=O)c1cc(-c2ccccc2)cc2cnn(Cc3cccc(Cl)c3)c12)c1ccc(C(=O)O)cc1` [Example 170, (S)-4-(1-(1-(3-chlorobenzyl)-5-phenyl-1H-indazole-7-carboxamido)ethyl)benzoic acid] was less than 100 nM; that for `O=C(O)c1ccc(CNC(=O)c2cc(-c3ccccc3)cc3ncn(Cc4ccc(C(F)(F)F)cc4)c23)cc1` [Example 171, 4-((5-phenyl-1-(4-(trifluoromethyl)benzyl)-1H-benzo[d]imidazole-7-carboxamido)-methyl)benzoic acid] was less than 100 nM. `O=C(O)c1ccc(CNC(=O)c2cc(-c3ccc(F)cc3)cc3ncn(Cc4ccc(C(F)(F)F)cc4)c23)cc1` [Example 172, 4-((5-(4-fluorophenyl)-1-(4-(trifluoromethyl)benzyl)-1H-benzo[d]imidazole-7-carboxamido)methyl)benzoic acid]: the IC50 is less than 100 nM. In turn, `O=C(O)c1ccc(CNC(=O)c2cc(-c3cc(F)cc(F)c3)cc3ncn(Cc4ccc(C(F)(F)F)cc4)c23)cc1` [Example 173, 4-((5-(3,5-difluorophenyl)-1-(4-(trifluoromethyl)benzyl)-1H-benzo[d]imidazole-7-carboxamido)methyl)benzoic acid] returned an IC50 of less than 100 nM. The value for `O=C(O)c1ccc(CNC(=O)c2cc(-c3ccccc3)cc3nnn(Cc4ccc(C(F)(F)F)cc4)c23)cc1` [Example 174, ((5-phenyl-1-(4-(trifluoromethyl)benzyl)-1H-benzo[d][1,2,3]triazole-7-carboxamido)methyl)benzoic acid] was less than 100 nM. The value for `O=C(O)c1ccc(CNC(=O)c2cc(-c3ccccc3)cc3ccn(Cc4cccc5ccccc45)c23)cc1` [Example 177, 44-((1-(naphthalen-1-ylmethyl)-5-phenyl-1H-indole-7-carboxamido)methyl)benzoic acid] was less than 100 nM; that for `C[C@H](NC(=O)c1cc(-c2ccccc2)cc2nnn(Cc3ccc(C(F)(F)F)cc3)c12)c1ccc(C(=O)O)cc1` [Example 179, (S)-4-(1-(5-phenyl-1-(4-(trifluoromethyl)benzyl)-1H-benzo[d][1,2,3]triazole-7-carboxamido)ethyl)benzoic acid] was less than 100 nM. Take `C[C@H](NC(=O)c1cc(-c2cc(F)cc(F)c2)cc2nnn(Cc3ccc(C(F)(F)F)cc3)c12)c1ccc(C(=O)O)cc1` [Example 181, (S)-4-(1-(5-(3,5-difluorophenyl)-1-(4-(trifluoromethyl)benzyl)-1H-benzo[d][1,2,3]triazole-7-carboxamido)ethyl)benzoic acid]: the IC50 was no less than 1000 nM. `O=C(O)c1ccc(CNC(=O)c2ccc(Nc3ccc(F)cc3)c3cnn(Cc4ccc5ccccc5c4)c23)cc1` [Example 182, 4-((4-((4-fluorophenyl)amino)-1-(naphthalen-2-ylmethyl)-1H-indazole-7-carboxamido)methyl)benzoic acid]: the IC50 was no less than 1000 nM. The value for `O=C(O)c1ccc(CNC(=O)c2ccc(Nc3ccc(F)cc3)c3ccn(Cc4ccc5ccccc5c4)c23)cc1` [Example 183, ((4-((4-fluorophenyl)amino)-1-(naphthalen-2-ylmethyl)-1H-indole-7-carboxamido)methyl)benzoic acid] was less than 100 nM; that for `O=C(O)c1ccc(CNC(=O)c2cc(-c3ccc(F)cc3)cc3cnn(Cc4ccc(-c5ccc(F)cc5)cc4)c23)cc1` [Example 185, 4-((1-((4′-fluoro-[1,1′-biphenyl]-4-yl)methyl)-5-(4-fluorophenyl)-1H-indazole-7-carboxamido)methyl)benzoic acid] was less than 100 nM; that for `O=C(O)c1ccc(CNC(=O)c2cc(-c3cc(F)cc(F)c3)cc3cnn(Cc4ccc(-c5ccc(F)cc5)cc4)c23)cc1` [Example 186, 4-((5-(3,5-difluorophenyl)-1-((4′-fluoro-[1,1′-biphenyl]-4-yl)methyl)-1H-indazole-7-carboxamido)methyl)benzoic acid] was less than 100 nM. The value for `O=C(O)c1ccc(CNC(=O)c2cc(-c3ccc(F)c(F)c3)cc3cnn(Cc4ccc(-c5ccc(F)cc5)cc4)c23)cc1` [Example 187, 4-((5-(3,4-difluorophenyl)-1-((4′-fluoro-[1,1′-biphenyl]-4-yl)methyl)-1H-indazole-7-carboxamido)methyl)benzoic acid] was less than 100 nM. The value for `O=C(O)c1ccc(CNC(=O)c2cc(-c3cc(F)cc(F)c3)cc3cnn(Cc4ccc(-c5ccccc5)cc4)c23)cc1` [Example 192, 4-((1-([1,1′-biphenyl]-4-ylmethyl)-5-(3,5-difluorophenyl)-1H-indazole-7-carboxamido)methyl)benzoic acid] was less than 100 nM; that for `O=C(O)c1ccc(CNC(=O)c2cc(-c3ccc(F)c(F)c3)cc3cnn(Cc4ccc(-c5ccccc5)cc4)c23)cc1` [Example 193, 4-((1-([1,1′-biphenyl]-4-ylmethyl)-5-(3,4-difluorophenyl)-1H-indazole-7-carboxamido)methyl)benzoic acid] was less than 100 nM.
